Assays:
[1] = molecular target: T1, CDK2/Cyclin E (Homo sapiens, UniProt P24941); assay: Enzymatic phosphorylation activity assay (Caliper mobility shift), CDK2/Cyclin E; assay type: biochemical; conditions: read-out: Enzyme CDK2/cyclin E IC50
T1 construct: purchased Eurofins 14-475
Description: (§1) Inhibitory effects of the compounds of the disclosure were measured in biochemical assays that measure the enzymatic phosphorylation activity of CDK enzyme in complex of Cyclin proteins phosphorylates 7.5 micromolar fluorescently labelled peptide substrate, 5-FAM-QSPKKG-CONH2, (FL-Peptide 18, Perkin Elmer, 760362) in the presence of adenosine-5′-triphosphate (ATP) and varying concentrations of the test compound in 100 mM 2-[4-(2-hydroxyethyl)piperazin-1-yl] ethanesulfonic acid (HEPES), pH 7.5, 10 mM MgCl2, 0.015% Brij-35, 1 mM dithiothreitol (DTT), 1.0% dimehylsulfoxide (DMSO). […] Reactions proceeded until between 10% to 20% total peptides were phosphorylated at room temperature (25° C.) and were terminated with 35 mM 2,2′,2″,2″-(ethane-1,2-diyldinitrilo)tetraacetic acid (EDTA). Product was detected using the Caliper mobility shift detection method where the phosphorylated peptide (product) and substrate were electrophoretically separated and measured. Percent activity was plotted against log concentration of compound and points to generate an apparent IC50. The following CDK enzymes in complex with different cyclin proteins were used in these assays: • CDK1/Cyclin B1, GST-tag (BPS, 40454), 1.5 nM used in the assay • CDK2/Cyclin E (Eurofins, 14-475), 1.25 nM used in the assays

[2] = molecular target: T2, CDK1/Cyclin B1, GST-tag (Homo sapiens, UniProt P06493); assay: Enzymatic phosphorylation activity assay (Caliper mobility shift), CDK1/Cyclin B1; assay type: biochemical; conditions: read-out: Enzyme CDK1/cyclin B1 IC50
T2 construct: GST; purchased BPS 40454
Description: as §1

T2 sequence (P06493 whole entry): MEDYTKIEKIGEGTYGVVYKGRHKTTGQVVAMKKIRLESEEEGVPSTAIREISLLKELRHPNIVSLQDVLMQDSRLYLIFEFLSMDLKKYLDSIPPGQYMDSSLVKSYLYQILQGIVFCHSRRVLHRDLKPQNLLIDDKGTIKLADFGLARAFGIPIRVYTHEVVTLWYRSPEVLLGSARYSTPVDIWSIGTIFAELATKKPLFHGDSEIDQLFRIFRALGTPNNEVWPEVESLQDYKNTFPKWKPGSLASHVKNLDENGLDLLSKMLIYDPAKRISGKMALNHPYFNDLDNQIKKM
T2 sequence (P14635 whole entry partner): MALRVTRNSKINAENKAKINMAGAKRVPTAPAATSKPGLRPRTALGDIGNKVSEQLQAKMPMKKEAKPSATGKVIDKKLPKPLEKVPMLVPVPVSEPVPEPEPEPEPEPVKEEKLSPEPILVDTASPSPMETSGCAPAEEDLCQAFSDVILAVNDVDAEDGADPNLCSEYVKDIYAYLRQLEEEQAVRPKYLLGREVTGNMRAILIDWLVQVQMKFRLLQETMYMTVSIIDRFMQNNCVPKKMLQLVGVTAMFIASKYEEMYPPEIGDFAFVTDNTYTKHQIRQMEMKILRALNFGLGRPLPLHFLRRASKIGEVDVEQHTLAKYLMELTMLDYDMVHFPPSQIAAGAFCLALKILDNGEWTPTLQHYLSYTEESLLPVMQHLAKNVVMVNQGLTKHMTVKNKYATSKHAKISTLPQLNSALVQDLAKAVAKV

CC(C)c1cc(Nc2cnc3ccn([C@@H](C)c4cccnc4)c3n2)n[nH]1 [Example 3, (S)—N-(5-isopropyl-1H-pyrazol-3-yl)-5-(1-(pyridin-3-yl)ethyl)-5H-pyrrolo[2,3-b]pyrazin-3-amine]
IC50 [1]: 0.03 nM | IC50 [2]: 40 nM

CC(C)c1cc(Nc2cnc3ccn(CC4CCOCC4)c3n2)n[nH]1 [Example 1, N-(5-isopropyl-1H-pyrazol-3-yl)-5-((tetrahydro-2H-pyran-4-yl)methyl)-5H-pyrrolo[2,3-b]pyrazin-3-amine]
IC50 [1]: 0.44 nM | IC50 [2]: 115 nM
